Data as given in patent US8512769B2, “Valerian extract preparation” (priority 2006, dated 2013).

Test system: male CD rats
Assay: Forced swimming test (FST) for antidepressive effect
Assay type: in vivo
Conditions: 1 mg/kg
Text: A more specific test for antidepressive activity is provided by the forced swimming test (FST) developed by Porsolt (Porsolt et al., 1978. Behavioural despair in rats: a new model sensitive to antidepressant treatments, Eur. J. Pharmacol. 47, 379-391).
In a so-called “forced swimming test”, the test animals (rats) are challenged by a stress situation from which they cannot escape by their own efforts. For this purpose, rats are at first left in a water-filled glass cylinder for a time of 15 minutes in a preliminary test (conditioning) one day before the actual test. The filling level is matched to the animals' body weight, so that every animal can support itself with the paws and tail and can keep its nose above water with minimum swimming movements. […] Twenty-four hours after this preliminary test, the test with valerian extract is performed in which the rats are again inserted into the water cylinders and the duration of immobility over a period of 5 minutes is cumulatively recorded.
For testing the valerian formulations on male CD rats, a pretreatment was used for 16 days, and the formulation according to Example 2b) was employed. […] The experiment was recorded by means of a video camera, and the time of immobility of the animals was later detected manually on the screen.

Q: For `CN1C(=O)CN=C(c2ccccc2)c2cc(Cl)ccc21` [Diazepam], which “Shortening of immobility time as compared to the control group” value is on record?
A: 28%
